Results: the supplement of paper PMC10307832

Assays:
Test in all cases: relative viability (nuclei count vs DMSO), 5 days (fraction); higher = more cells survive
[1] = compound: C1=CC2=NC=CN=C2C=C1/C=C/3\C(=O)NC(=O)S3 + CC(=O)c1c(C)c2cnc(Nc3ccc(N4CCNCC4)cn3)nc2n(C2CCCC2)c1=O [Palbociclib] (partner 0.5 µM)
Procedure, shortened: (§1)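 Lung cancer cell lines were seeded in 1536-well plates and dosed by pin tool the next day, with either a single drug or a fixed anchor-drug dose combined with five library-drug doses (not always all listed) spaced in √10 steps. Five days later, one step fixed the cells and stained their nuclei (final 0.05% Triton X-100, 1% formaldehyde, 1 ug/ml Hoechst), and nuclei were counted on 4× images. Relative viability is the nuclei count in treated wells divided by the count in vehicle wells, and each value is the median of duplicate plates.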

BGJ398 + Bortezomib = compound: CCN1CCN(c2ccc(Nc3cc(N(C)C(=O)Nc4c(Cl)c(OC)cc(OC)c4Cl)ncn3)cc2)CC1 [BGJ398] + CC(C)C[C@H](NC(=O)[C@H](Cc1ccccc1)NC(=O)c1cnccn1)B(O)O [Bortezomib] (partner 0.002 µM)
Procedure, shortened: as §1

[2] = compound: C1=CC2=NC=CN=C2C=C1/C=C/3\C(=O)NC(=O)S3 + C[C@@H](Oc1cc(-c2cnn(C3CCNCC3)c2)cnc1N)c1c(Cl)ccc(F)c1Cl [Crizotinib] (partner 1 µM)
Procedure, shortened: as §1

BGJ398 + Vorinostat = compound: CCN1CCN(c2ccc(Nc3cc(N(C)C(=O)Nc4c(Cl)c(OC)cc(OC)c4Cl)ncn3)cc2)CC1 [BGJ398] + O=C(CCCCCCC(=O)Nc1ccccc1)NO [Vorinostat] (partner 1 µM)
Procedure, shortened: as §1

Cell Line | relative viability ([1]; first compound 0.02 µM) | relative viability ([1]; first compound 0.06325 µM) | relative viability ([1]; first compound 0.2 µM) | relative viability ([1]; first compound 0.6325 µM) | relative viability ([1]; first compound 2 µM) | relative viability (BGJ398 + Bortezomib; first compound 0.01 µM) | relative viability (BGJ398 + Bortezomib; first compound 0.03162 µM) | relative viability (BGJ398 + Bortezomib; first compound 0.1 µM) | relative viability (BGJ398 + Bortezomib; first compound 0.3162 µM) | relative viability (BGJ398 + Bortezomib; first compound 1 µM) | relative viability ([2]; first compound 0.02 µM) | relative viability ([2]; first compound 0.06325 µM) | relative viability ([2]; first compound 0.2 µM) | relative viability ([2]; first compound 0.6325 µM) | relative viability ([2]; first compound 2 µM) | relative viability (BGJ398 + Vorinostat; first compound 0.01 µM) | relative viability (BGJ398 + Vorinostat; first compound 0.03162 µM) | relative viability (BGJ398 + Vorinostat; first compound 0.1 µM) | relative viability (BGJ398 + Vorinostat; first compound 0.3162 µM) | relative viability (BGJ398 + Vorinostat; first compound 1 µM)
HCC-78 | 0.471 | 0.475 | 0.483 | 0.535 | 0.423 | 0.373 | 0.59 | 0.468 | 0.472 | 0.455 | 0.341 | 0.309 | 0.296 | 0.337 | 0.25 | 0.427 | 0.417 | 0.518 | 0.481 | 0.577
HCC-366 | 0.355 | – | 0.357 | 0.366 | 0.374 | 1.07 | 1.1 | 1.15 | 1.09 | 0.991 | 0.441 | 0.306 | 0.605 | 0.441 | 0.409 | 0.337 | 0.385 | 0.371 | 0.391 | 0.255
HCC-827 | 0.616 | 0.436 | 0.425 | 0.51 | 0.473 | 0.942 | 0.945 | 1.08 | 0.972 | 0.973 | 0.89 | 0.905 | 0.933 | 0.804 | 1.03 | 0.763 | – | 0.87 | 0.358 | 0.81
HOP-62 | 0.478 | 0.527 | 0.44 | 0.373 | 0.449 | 0.726 | 1.05 | 1.12 | 0.585 | 0.788 | 1.1 | 0.953 | 1.03 | 0.93 | 0.911 | 0.694 | 0.618 | 0.626 | 0.575 | 0.602
IA-LM | – | – | – | – | – | 0.741 | 0.928 | 0.905 | 0.822 | 0.788 | 0.654 | – | 0.857 | 0.998 | 0.718 | 0.797 | 0.806 | 1.09 | 0.972 | 0.894
LC-2-ad | 0.463 | 0.455 | 0.481 | 0.53 | 0.352 | 0.968 | 1.12 | 1.07 | 1.01 | 1.09 | 0.412 | 0.363 | 0.402 | 0.44 | 0.715 | 0.708 | 0.76 | 0.742 | 0.687 | 0.703
LCLC-97TM1 | 0.239 | 0.214 | 0.215 | 0.176 | 0.155 | 0.685 | 0.492 | 0.789 | 0.529 | 0.329 | 0.391 | 0.344 | 0.375 | 0.354 | 0.218 | 0.533 | 0.691 | 0.743 | 0.781 | 0.753
LK-2 | 0.593 | 0.767 | 0.619 | 0.665 | 0.24 | – | – | – | – | – | 0.311 | 0.252 | 0.236 | 0.22 | 0.235 | 0.296 | 0.334 | 0.247 | 0.225 | 0.207
NCI-H358 | 0.147 | 0.135 | 0.128 | 0.136 | 0.114 | – | – | – | – | – | 0.732 | 0.568 | 0.561 | 0.551 | 0.573 | 0.614 | 0.769 | 0.704 | 0.635 | 0.824
NCI-H522 | 1.06 | 1.08 | 0.876 | 0.816 | 0.749 | – | – | – | – | – | – | – | – | – | – | 0.926 | 0.802 | 0.935 | 1.01 | 0.888
NCI-H596 | – | – | – | – | – | 0.988 | 0.72 | 0.96 | 1.04 | 0.769 | 0.976 | 0.87 | 1.06 | 0.989 | 1 | 0.612 | 0.619 | 0.674 | 0.508 | 0.528
NCI-H1299 | – | – | – | – | – | 0.982 | 1.06 | 1.02 | 1.01 | 1.01 | 0.955 | 1.03 | 0.932 | 0.89 | 0.986 | – | – | – | – | –
NCI-H1395 | 0.621 | 0.58 | 0.642 | 0.622 | 0.594 | – | – | – | – | – | – | – | – | – | – | 0.754 | 0.683 | 0.534 | 0.469 | 0.495
NCI-H1563 | – | – | – | – | – | 0.931 | 0.802 | 0.778 | 0.674 | 0.71 | 0.842 | 0.898 | 0.86 | 0.861 | 0.831 | – | – | – | – | –
NCI-H1648 | 0.301 | 0.223 | 0.345 | – | 0.23 | – | – | – | – | – | – | – | – | – | – | 1.6 | – | 0.363 | 0.46 | 0.369
NCI-H1703 | – | – | – | – | – | 0.451 | 0.467 | 0.253 | 0.261 | 0.457 | 0.638 | 0.701 | 0.656 | 0.811 | 0.674 | – | – | – | – | –
NCI-H1792 | 0.652 | 0.471 | 0.663 | 0.595 | 0.425 | 0.936 | 0.963 | 1.11 | 0.926 | 0.942 | 0.936 | 0.872 | 1.02 | 0.792 | 0.668 | – | – | – | – | –
NCI-H1793 | 0.289 | 0.296 | 0.282 | 0.336 | 0.288 | – | – | – | – | – | – | – | – | – | – | 0.767 | 0.574 | 0.728 | 0.515 | 0.421
NCI-H1944 | 0.287 | 0.289 | 0.352 | 0.312 | 0.331 | – | – | – | – | – | 1.07 | 1.06 | 1.01 | 0.993 | 1.1 | 0.525 | 0.529 | 0.55 | 0.49 | 0.471
NCI-H2170 | 0.35 | 0.448 | 0.405 | 0.374 | 0.374 | – | – | – | – | – | 1.14 | 1.22 | 1.2 | 1.16 | 1.34 | 0.823 | 0.814 | 0.847 | 0.821 | 0.861
NCI-H2342 | 0.508 | 0.524 | 0.547 | 0.484 | 0.498 | – | – | – | – | – | – | – | – | – | – | 0.845 | 0.703 | 0.959 | 0.711 | 0.801
SK-MES-1 | 0.328 | 0.305 | 0.344 | 0.338 | 0.313 | – | – | – | – | – | 0.965 | 1.11 | 1.02 | 0.981 | 1 | 1.05 | 1.11 | 1.03 | 1.09 | 0.913
SW 900 | 0.491 | 0.545 | 0.511 | – | 0.602 | – | – | – | – | – | – | – | – | – | – | 0.534 | 0.425 | 0.562 | 0.261 | 0.24
